Data on 55 compounds can be found in ChEMBL document CHEMBL1156829 (Proc Natl Acad Sci U S A, 2008).

SMILES strings stand for the structures.

As usually defined, the EC50 is the concentration giving half of the maximal effect. A word on the CC50: it is the concentration giving 50% cytotoxicity. Read a high CC50 as lower toxicity to the cells.

In data set [1] the test system is Plasmodium falciparum. The experiment in a line: NOVARTIS: Inhibition of Plasmodium falciparum W2 (drug-resistant) proliferation in erythrocyte-based infection assay. It counts as functional, organism-based. Conditions: Plasmodium falciparum, W2; read-out: EC50.
For data set [2], the system named is Plasmodium falciparum. Put plainly: NOVARTIS: Inhibition of Plasmodium falciparum 3D7 (drug-susceptible) proliferation in erythrocyte-based infection assay. It counts as functional, organism-based. Conditions: Plasmodium falciparum, 3D7.
Data set [3] is described as follows: NOVARTIS: Cytotoxicity against human hepatocellular carcinoma cell line (Huh7). The conditions noted are these: Huh7 cells (hepatocellular carcinoma cell line). It counts as toxicity, cell-based, Huh-7.

In the case of `Cc1ccc(NC(C)C(=O)Nc2ccc(C#N)cc2)cc1S(=O)(=O)N1CCCCC1` (stereo not given), the EC50 in data set [1] was found to be 446 nM; in data set [2], 406 nM. In addition, in data set [3], the CC50 is 59500 nM.
As to `Cc1ncc(CN2CCC(C(=O)Nc3ccc(-c4nc5ccccc5o4)cc3)CC2)s1`, the results for the EC50 in data set [1] and in data set [2] were 721 nM and 740 nM, respectively. Also, the 50% cytotoxic concentration (CC50) in data set [3] was above 100000 nM.
For `CCNC(=O)C=Cc1ccc(C(C)(C)C)cc1`, in that order: 719 nM, 616 nM and above 100000 nM.
On to `Cc1nc2ccc(Cl)cc2c(O)c1I`, for which the EC50 in data set [1] came to 714 nM; in data set [2], 3470 nM. In data set [3], this compound came in with a 50% cytotoxic concentration (CC50) above 100000 nM.
In the case of `CCCN(CCC)S(=O)(=O)c1ccc(C(=O)Nc2ccccc2C(=O)Oc2ccc3c(c2)c(C(=O)OCC)c(C)n3-c2ccccc2)cc1`, the results for the EC50 in data set [1] and in data set [2] were 744 nM and 726 nM, respectively. Besides, in data set [3], the cytotoxic concentration (CC50) was above 100000 nM.
For `CN(C)CCNc1cc(-c2ccc3ccccc3c2)nc2ccccc12`, in that order: 729 nM, 810 nM and above 100000 nM.
The matching figures for `Cc1ccc2cc3c(N)c4cccc(C)c4nc3nc2c1`: 73.6 nM, 115 nM and above 10000 nM.
The matching figures for `O=[N+]([O-])c1ccc(C=NNc2nc3ccccc3[nH]2)cc1`: 742 nM, 818 nM and above 100000 nM.
With `O=C(CSc1nccn1C1CCCC1)Nc1cc(C(F)(F)F)ccc1Cl`, the EC50 in data set [1] was determined as 714 nM; in data set [2], 545 nM. In data set [3], this compound came in with a 50% cytotoxic concentration (CC50) above 100000 nM.
For `COc1ccc(-c2csc3ncnc(Cl)c23)cc1OC`, in that order: 723 nM, 2320 nM and above 100000 nM.
In the case of `CCOc1ccc(-c2nc(NC(=O)CS(=O)(=O)c3ccccc3)sc2C)cc1`, the figures for the EC50 in data set [1] and in data set [2] were 740 nM and 525 nM, respectively. In data set [3], the CC50 was above 100000 nM.
For `OCCNc1nc(Nc2ccc(F)cc2)nc2ccccc12`, in that order: 749 nM, 223 nM and above 100000 nM.
For `Oc1c(CN2CCCCC2)ccc2ccccc12`, in that order: 727 nM, 5630 nM and above 100000 nM.
For `COc1ccc(CN2CCN(Cc3ccc(OC)c(C)c3C)C(CCO)C2)c(O)c1` (stereo not given), in that order: 319 nM, 1650 nM and above 44200 nM.
Consider `CCOC(=O)c1c(C)[n+](-c2ccc(C)cc2)c(CC)c2cc(OC)c(OC)cc12`, for which the concentration for a half-maximal effect (EC50) in data set [1] was found to be 683 nM; in data set [2], 702 nM. The compound also returned a 50% cytotoxic concentration (CC50) in data set [3] above 94000 nM.
The matching figures for `CC(C)(C)CC(C)(C)Nc1c(-c2ccccc2OC(=O)c2ccc(Cl)c(Cl)c2)nc2ccccn12`: 72.3 nM, 920 nM and above 10000 nM.
`CCCCOc1ccc(C=CC(=O)NCc2ccco2)cc1`: the EC50 in data set [1] is 717 nM; in data set [2], 1070 nM. The compound also registered a CC50 in data set [3] above 100000 nM.
The matching figures for `COc1cccc(NC(=O)Cn2c(C)c(C(C)=O)c3ccccc32)c1`: 713 nM, 1760 nM and above 100000 nM.
The matching figures for `COc1ccc(Nc2nc(NN=Cc3cccc(Cl)c3)nc(Nc3ccc([N+](=O)[O-])cc3)n2)cc1`: 717 nM, 603 nM and above 100000 nM.
In the case of `CCCC(=O)N(CCCC(C)Nc1cc(OC)cc2cccnc12)Cc1ccc(F)cc1` (stereo not given), the results for the EC50 in data set [1] and in data set [2] were 71.4 nM and 385 nM, respectively. In data set [3], this compound had a CC50 above 10000 nM.
For `CC(Oc1cccc(Cl)c1)C(=O)N1CCc2ccccc21` (stereo not given), in that order: 750 nM, 748 nM and above 100000 nM.
For the compound `CN(CCCNc1ccc(C(=O)Nc2ccc(C(F)(F)F)cc2)cc1[N+](=O)[O-])Cc1ccccc1`, the EC50 in data set [1] was determined as 720 nM; in data set [2], 316 nM. In data set [3], this compound displayed a CC50 above 100000 nM.
As for `Cc1ccn2c(NC(C)(C)CC(C)(C)C)c(-c3ccccc3OC(=O)C3CCC3)nc2c1`, the figures for the EC50 in data set [1] and in data set [2] were 75.7 nM and 822 nM, respectively. For the same compound, the half-maximal cytotoxic concentration (CC50) in data set [3] was above 10000 nM.
The matching figures for `COc1cc2nc(Nc3ccc(F)cc3)nc(N)c2cc1OC`: 139 nM, 117 nM and 18400 nM.
For `COc1cc(CN2CCC3(CC2)CC3C(=O)NCCc2ccccc2OC)ccc1O` (stereo not given), in that order: 739 nM, 2350 nM and above 100000 nM.
The matching figures for `CC(=O)Nc1ccc(S(=O)(=O)N2CCC(c3nc(-c4cccnc4)no3)CC2)cc1`: 736 nM, above 9640 nM and above 100000 nM.
Consider `CCCN(CCC)S(=O)(=O)c1cc(Br)cc2c1N(C(=O)CC)CC2`, for which the EC50 in data set [1] amounted to 760 nM; in data set [2], 476 nM. The compound further returned a CC50 in data set [3] above 100000 nM.
For `Cc1ccc(-[n+]2c(-c3ccccc3)cn3c2CCCCC3)cc1`, in that order: 515 nM, 605 nM and 67800 nM.
Take `CCOC(=O)c1c(N=Cc2cccc(OC)c2O)sc2c1CCN(C)C2`: the EC50 is 744 nM in data set [1] and above 12500 nM in data set [2]. In addition, the CC50 in data set [3] is above 100000 nM.
The matching figures for `CCCCOc1ccc(N(C(C)=O)C2=C(N3CCOCC3)C(=O)c3ccccc3C2=O)cc1`: 304 nM, 232 nM and 41000 nM.
For `CCCCCCCCC(=O)Oc1ccccc1-c1nc2cc(C)ccn2c1NC(C)(C)CC(C)(C)C`, in that order: 74 nM, 713 nM and above 10000 nM.
The matching figures for `CCOC(=O)NN=C(C)c1ccc(C(C)=NNC(=O)OCC)cc1`: 747 nM, above 5590 nM and above 100000 nM.
Take `Clc1ccc(-c2csc3ncnc(NCc4ccncc4)c23)cc1`: the EC50 in data set [1] was 746 nM; in data set [2], 2890 nM. For the same compound, the CC50 in data set [3] was above 100000 nM.
The matching figures for `OC(CN1CCN(Cc2ccccc2)CC1)Cn1c2ccc(I)cc2c2cc(I)ccc21` (stereo not given): 148 nM, 651 nM and 20100 nM.
With `O=c1sc(=NCC(O)c2ccc(Cl)c(Cl)c2)[nH]c2ccccc12` (stereo not given), the EC50 in data set [1] is 73.1 nM; in data set [2], 757 nM. The CC50 in data set [3] is above 10000 nM.
In the case of `CCCNC1=C(c2ccc(OC)cc2)C(=O)c2ccccc21`, the values for the EC50 in data set [1] and in data set [2] were 754 nM and 3380 nM, respectively. Moreover, the CC50 in data set [3] was above 100000 nM.
As for `CCOc1cccc(Nc2cc(C)nc3ncnn23)c1`, the EC50 was found to be 729 nM in data set [1] and 679 nM in data set [2]. For the same compound, the CC50 in data set [3] was above 100000 nM.
As to `CN(C)c1ccc(/C=C/C(=O)NC(=O)c2ccccc2O)cc1`, the concentration for a half-maximal effect (EC50) in data set [1] was 75.2 nM; in data set [2] it was 84.4 nM. The CC50 in data set [3] was above 10000 nM.
With `CCOc1ccc2[nH]c3c(NCCCN4CCOCC4)ncnc3c2c1`, the results for the EC50 in data set [1] and in data set [2] were 267 nM and 749 nM, respectively. Besides, the half-maximal cytotoxic concentration (CC50) in data set [3] was 36400 nM.
The matching figures for `CC[n+]1c(C)n(-c2ccccc2)c2ccc(C3Nc4ccccc4S3)cc21` (stereo not given): 734 nM, 1180 nM and above 100000 nM.
The matching figures for `CCOC(=O)C1=C(C)NC2=C(C(=O)C(C(=O)OCC)C(c3ccccc3OC)C2)C1c1cc(OC)c(OC)c(OC)c1` (stereo not given): 713 nM, 1500 nM and above 100000 nM.
For `CCn1c(SCCCCNC(=O)c2cc([N+](=O)[O-])cc([N+](=O)[O-])c2)nc(-c2ccc(C)cc2)c1-c1ccc(C)cc1`, in that order: 73.1 nM, 679 nM and above 10000 nM.
Take `Cc1oc(C)c2c(=O)cc(-c3cccs3)cc(O)c12`: the concentration for a half-maximal effect (EC50) in data set [1] was found to be 758 nM; in data set [2], 1220 nM. In data set [3], this compound had a CC50 above 100000 nM.
The matching figures for `CCc1c2ccc(C)n2cc[n+]1CC`: 749 nM, 610 nM and above 100000 nM.
For `Cc1cccc(C)c1-n1c(SCc2cccc(F)c2)nc2c(sc(=S)n2-c2c(C)cccc2C)c1=O`, in that order: 728 nM, 5160 nM and above 100000 nM.
Take `CCCCOc1nc(-c2ccc(OC)cc2)n(C(=O)c2ccccc2OC)n1`: the EC50 was 717 nM in data set [1] and 8970 nM in data set [2]. The compound also showed a 50% cytotoxic concentration (CC50) in data set [3] above 100000 nM.
For the compound `Cc1cccc(C(=O)NCc2nnc(S)n2-c2cccc(C(F)(F)F)c2)c1`, the figures for the EC50 in data set [1] and in data set [2] were 750 nM and 2180 nM, respectively. Further, the CC50 in data set [3] is above 100000 nM.
For `O=C(c1cc2n(n1)C(C(F)(F)F)CC(c1cccs1)N2)N1CCN(C(c2ccccc2)c2ccccc2)CC1` (stereo not given), in that order: 745 nM, 341 nM and above 100000 nM.
In the case of `COc1cc(CN(CC[C@H](c2ccccc2)c2c(O)ccc3ccccc23)Cc2ccccc2)cc(OC)c1`, the results for the EC50 in data set [1] and in data set [2] were 75.4 nM and 702 nM, respectively. Moreover, the CC50 in data set [3] is above 10000 nM.
For `Cc1cc(C)n(CC(O)Cn2c3ccc(Cl)cc3c3cc(Cl)ccc32)n1` (stereo not given), in that order: 342 nM, 1010 nM and 45500 nM.
Regarding `CCCN(CCC)S(=O)(=O)c1cc(Br)cc2c1N(C(=O)C1CC1)CC2`, the EC50 worked out at 736 nM in data set [1] and 410 nM in data set [2]. The compound also came in with a CC50 in data set [3] above 100000 nM.
Regarding `CN1C2CCC1C(=Cc1ccsc1)C(=O)C2=Cc1ccsc1`, the EC50 in data set [1] came out at 748 nM; in data set [2], 676 nM. This compound also came in with a CC50 in data set [3] above 100000 nM.
For `CCCCOC(=O)c1ccc(NC2=C(c3ccc(OC)cc3)C(=O)c3ccccc32)cc1`, in that order: 758 nM, 1210 nM and above 100000 nM.
For `COc1ccc2nc(C)cc(NN=Cc3cccs3)c2c1`, in that order: 134 nM, 158 nM and 18400 nM.
The matching figures for `CCC1=[N+](C)c2cccc3cccc(c23)N1C`: 739 nM, 958 nM and above 100000 nM.
